Source: article PMC3878918, “Cathepsin K inhibitors increase distal femoral bone mineral density in rapidly growing rabbits” (BMC Musculoskeletal Disorders, 2013)
Where two headings read alike, the source gives them in different places.

What was measured:
[1] = test system: rabbit osteoclasts; experiment: In vitro bone resorption assay, rabbit osteoclasts on bovine bone slices, CTx-I release; assay type: cell-based
Procedure: The bone resorption assay is a functional in vitro assay that measures Type-I collagen degradation after a three-day incubation of rabbit osteoclasts cultured on bovine bone with varying concentrations of test compound, as previously described. Briefly, long bones isolated from a 10-day-old NZW rabbit were finely minced in alpha-minimal essential medium (α-MEM) (Gibco BRL; Gaithersburg, MD, USA) containing penicillin/streptomycin, pH 7.1 to obtain a cell suspension and 1 × 10^6 cells were seeded onto each 6 mm diameter × 0.22 mm thick bovine bone slice in the same medium containing 2% fetal bovine serum (FBS). After 4 h, the medium was replaced with α-MEM, 2% FBS, 1,25(OH)2D3 10 nM, and test compounds. The cultures were incubated for three days at 37°C in 5% CO2. C-telopeptide of Type-I collagen (CTx-I) released into the medium was measured by the CROSSLAPS Elisa assay (Osteometer Biotech, Herlev, Denmark).

[2] = set-up: method as in PMID 16302795, PMID 18226527; settings: rabbit, cited from earlier work; for Cmin / AUC / Cmax: oral; for Cmin: trough at 24 h
[3] = test system: rabbit CatK; settings: 2 μM Z-Leu-Arg-AMC as substrate; cited from earlier work
[4] = test system: rapidly growing rabbits; experiment: Rabbit Schenk assay: distal femoral BMD by ex vivo DXA and histology after 10 days' treatment; assay type: in vivo; settings: for Distal femur BMD / increase in DFBMD vs vehicle / DFBMD of representative DXA image / DFBMD / % BMD gain: 10 days; for Distal femur BMD / DFBMD: mean ± SEM; for DFBMD of representative DXA image: single representative femur; for DFBMD: dose-ranging study; for % BMD gain: vs vehicle
Procedure: To characterize the dose of ALN required to show increases in DFBMD, dose-ranging studies were conducted using ALN, administered at doses of 0, 50, 100, 200, and 500 μg/kg (SC, once daily). Seven-week-old rabbits were weight-randomized into groups (n = 8-11 per group). ALN was prepared in deionized water and pH adjusted to 7.2. The injection volume was 0.3 mL per rabbit. Rabbits were treated daily for 10 consecutive days. Rabbits were reweighed on Day 6 and dosing volume was adjusted accordingly. At necropsy, the right femur was excised and stored in 70% ethanol.
Rabbits were treated once daily by oral gavage for 10 consecutive days with vehicle (1% carboxymethylcellulose or 0.5%/0.2% carboxymethylcellulose/SDS), CatK inhibitors, or ALN (100 μg/kg, SC). Several studies were conducted, with each study including vehicle (n = 11–14), multiple dose levels of a CatK inhibitor (n = 13–14 per group), and ALN (n = 8–9). On Day 1, two rabbits from each group receiving CatK inhibitors were bled via the central ear artery (0.5 mL each) at 0, 0.25, 1, 3, 6, 8, and 24 h after dosing. Plasma concentrations of CatK inhibitors were determined in all samples. On Day 11, rabbits were euthanized. Femurs were removed and stored in 70% ethanol for BMD analysis.
Whole right femurs with muscles removed, were immersed in two inches of water in an acrylic box, and positioned with both distal condyles resting on the bottom of the box. The distal 5 cm of the femur was scanned using small animal software in high resolution mode on a Hologic QDR 4500 fan-beam bone densitometer (DXA; Hologic, Inc., Waltham, MA, USA). The distal 3 cm of the femur was analyzed. A region of interest (ROI) beginning one line distal to the distal edge of the femur and centered 70 lines wide and extending 60 lines proximally in the long axis of the bone was applied. Bone mineral content (BMC) and bone area (BAr) were output by DXA software. BMD was calculated as BMC/BAr.
Following ex vivo DXA scanning, the distal one-third of the femur was cut mid-sagitally and then dehydrated, without prior decalcification, in increasing concentrations of ethanol. The right portion was embedded in 80% methylmethacrylate/20% dibutyl phthalate. Parasagittal sections (6 μm) were cut on a Reichert-Jung Polycut sledge microtome (Nussloch, Germany) and mounted on glass slides. A Masson’s trichrome stain was performed to view calcified tissue.

[5] = test system: rabbit osteoclasts; set-up: method as in PMID 16302795, PMID 18226527; settings: three-day incubation, CTx-I release; read-out: IC50 Rabbit bone resorption assay; cited from earlier work
[6] = test system: growing rats; settings: cited from earlier work; for trabecular bone volume in the proximal tibial metaphysis vs untreated rats: growing rats, ten days
[7] = test system: rat CatK; set-up: method as in PMID 19453281; settings: cited from earlier work
[8] = test system: mouse CatK; set-up: method as in PMID 19453281; settings: cited from earlier work
[9] = test system: human CatK; set-up: method as in PMID 19453281; settings: cited from earlier work
[10] = test system: weanling rats; settings: six weeks of once-weekly treatment; cited from earlier work
[11] = printed in the 3 mg/kg dose row
[12] = printed in the 10 mg/kg dose row

Structure (SMILES) | fold more potent in the bone resorption assay than L-833905 [1] | Cl ([2]; 1 mg/kg dose) [mL/min/kg] | Cmin ([2]; 1 mg/kg, LOD ~ 1 nM) | AUC ([2]; 1 mg/kg) [μm*hr] | Cmax ([2]; 1 mg/kg) [nM] | Cmin ([2]; 3 mg/kg) [nM] | AUC ([2]; 3 mg/kg) [μm*hr] | Cmax ([2]; 3 mg/kg) [nM] | Cmin ([2]; 10 mg/kg) [nM] | AUC ([2]; 10 mg/kg) [μm*hr] | Cmax ([2]; 10 mg/kg) [nM] | IC50 [3] [nM] | increase in DFBMD vs vehicle ([4]; 3 mg/kg oral once daily) [%] | increase in DFBMD vs vehicle ([4]; 10 mg/kg oral once daily) [%] | Distal femur BMD ([4]; 10 mg/kg oral once daily) [mg/cm^2] | IC50 [5] [nM] | also measured
CC(C)C[C@H](N[C@@H](c1ccc(-c2ccc(S(C)(=O)=O)cc2)cc1)C(F)(F)F)C(=O)NCC#N [Compound L-873724] | approximately 30 fold | 26 | <LOD* | 0.5 | 78 | 28 | 3.1 | 490 | 32 | 7.8 | 1370 | 0.8 | 9 | 15 | 327.7 ± 7.5 | 13 ± 1 | Cl [2, 11]: 26 mL/min/kg; Cl [2, 12]: 26 mL/min/kg; Distal femur BMD ([4]; 1 mg/kg oral once daily): 301.2 ± 3.7 mg/cm^2; Distal femur BMD ([4]; 3 mg/kg oral once daily): 310.5 ± 6.5 mg/cm^2
O=P(O)(O)C(Cl)(Cl)P(=O)(O)O [clodronate] | – | – | – | – | – | – | – | – | – | – | – | – | – | – | – | – | trabecular bone volume in the proximal tibial metaphysis vs untreated rats [6]: higher trabecular bone volume
CC(C)C[C@@H](C(=O)NCC#N)c1cccc(-c2ccc(N3CCNCC3)cc2)c1 [Compound L-833905, (R)-N-(cyanomethyl)-4-methyl-2-(4′-(piperazin-1-yl)-[1,1′-biphenyl]-3-yl)pentanamide] | – | – | – | – | – | – | – | – | 29 | 1.9 | 163 | 33 ± 2 | – | 3 | 282.5 ± 5.5 | 149 ± 20 | fold less potent inhibitor of CatK than L-006235, L-873724 and ODN ([1]; from the EIA and functional cell-based assay): 6–30 fold; Cmin ([2]; 30 mg/kg): 60 nM; AUC ([2]; 30 mg/kg): 6.1 μm*hr; Cmax ([2]; 30 mg/kg): 651 nM; increase in DFBMD vs vehicle ([4]; 30 mg/kg oral once daily): 10%; Distal femur BMD ([4]; 30 mg/kg oral once daily): 301.8 ± 4.9 mg/cm^2
CC(O)(P(=O)(O)O)P(=O)(O)O [etidronate] | – | – | – | – | – | – | – | – | – | – | – | – | – | – | – | – | trabecular bone volume in the proximal tibial metaphysis vs untreated rats [6]: higher trabecular bone volume
CN1CCN(c2nc(-c3ccc(C(=O)NC4(C(=O)NCC#N)CCCCC4)cc3)cs2)CC1 [Compound L-006235] | approximately 30 fold | 113 | 9 nM | 0.3 | 74 | 15 | 1.0 | 337 | 8 | 5.0 | 2440 | 0.5 | 11 | 15 | 303.5 ± 5.4 | 5 ± 1 | Cl [2, 11]: 113 mL/min/kg; Cl [2, 12]: 113 mL/min/kg; increase in DFBMD vs vehicle ([4]; 1 mg/kg oral once daily): 7%; Distal femur BMD ([4]; 1 mg/kg oral once daily): 281.7 ± 4.9 mg/cm^2; Distal femur BMD ([4]; 3 mg/kg oral once daily): 293.5 ± 2.8 mg/cm^2
CC(C)(F)C[C@H](N[C@@H](c1ccc(-c2ccc(S(C)(=O)=O)cc2)cc1)C(F)(F)F)C(=O)NC1(C#N)CC1 [ODN, odanacatib] | approximately 30 fold | 6 | 37 nM | 2.2 | 130 | 88 | 4.1 | 270 | – | – | – | 1 | 19 | – | – | 23 ± 6 | IC50 [7]: 112 nM; fold less potent versus rat CatK than versus human and rabbit CatK [7]: more than 500 fold; AUC ([2]; 0.3 mg/kg): 0.7 μm*hr; Cl ([2]; printed in the 0.3 mg/kg dose row): 6 mL/min/kg; IC50 [8]: 108 nM; fold less potent versus mouse CatK than versus human and rabbit CatK [8]: more than 500 fold; increase in DFBMD vs vehicle ([4]; 0.3 mg/kg oral once daily): 7%; increase in DFBMD vs vehicle ([4]; 1 mg/kg oral once daily): 11%; DFBMD of representative DXA image ([4]; ODN 3 mg/kg): 388 mg/cm^2; IC50 [9]: 0.2 nM
NCCCC(O)(P(=O)(O)O)P(=O)(O)O [ALN, alendronate, reference compound] | – | – | – | – | – | – | – | – | – | – | – | – | – | – | – | – | distal femoral metaphyseal BMD [10]: increase in distal femoral metaphyseal BMD; histology of distal femoral metaphysis compared to vehicle ([4]; 10 days' treatment, Masson's trichrome): increased retention of both calcified cartilage and bone tissue; DFBMD ([4]; ALN 50 μg/kg SC once daily): 277.8 ± 8.4 mg/cm^2; % BMD gain ([4]; ALN 50 μg/kg/day SC): 15%; DFBMD ([4]; ALN 100 μg/kg SC once daily): 313.7 ± 3.9 mg/cm^2; Distal femur BMD ([4]; ALN 100 μg/kg SC positive control in the L-006235 study): 300.5 ± 4.6 mg/cm^2; Distal femur BMD ([4]; ALN 100 μg/kg SC positive control in the L-833905 study): 314.0 ± 9.1 mg/cm^2; Distal femur BMD ([4]; ALN 100 μg/kg SC positive control in the L-873724 study): 352.8 ± 9.4 mg/cm^2; % BMD gain ([4]; ALN 100 μg/kg/day SC): 16%; DFBMD of representative DXA image ([4]; ALN 100 μg/kg/day): 361 mg/cm^2; DFBMD ([4]; ALN 200 μg/kg SC once daily): 281.7 ± 6.4 mg/cm^2; % BMD gain ([4]; ALN 200 μg/kg/day SC): 16%; DFBMD ([4]; ALN 500 μg/kg SC once daily): 291.2 ± 9.4 mg/cm^2; % BMD gain ([4]; ALN 500 μg/kg/day SC): 21%; trabecular bone volume ([6]; seven days SC 0.010 mg/kg/d): increased trabecular bone volume
